The test system of the assay is D54 ERlucT glycosylation luciferase reporter, luminescence, 24 h. Description: blockers of NLG process in reporter cells – D54 ERlucT cells, luminescence, cherry-picks, dose response (AID 624491).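 Also: signal gain reflects blocked N-linked glycosylation of a luciferase reporter; actives raise luciferase signal so AC26 marks activators of the reporter.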

With `Nc1nonc1C(=O)N/N=C/c1ccc([N+](=O)[O-])o1`, the AC26 was 6160 nM.
As to `Cc1ccc(S(=O)(=O)C(NC(=O)c2ccccc2)=C(Cl)Cl)cc1`, the AC26 was 4090 nM.
With `COc1ccc(/C=N/NC(=O)c2cccc(NC(=O)c3ccccc3Cl)c2)cc1` the figure was 5130 nM; with `CCCOc1ccccc1C1CC(=O)NC2=C1C(=O)CCC2` (stereo not drawn), 2250 nM.
On to `O=C(Nc1nc2ccccc2c(=O)s1)c1ccco1`, for which the AC26 is 653 nM.
As for `CCOc1ccc2[nH]c3c(N4CCc5ccccc5C4)ncnc3c2c1`, the AC26 was 3460 nM.
As to `CCOc1cc(C(=O)Nc2ccc(N3CCOCC3)cc2)cc(Br)c1OC`, the AC26 is 2770 nM.
For the compound `COc1ccc(NC(=O)C2Cc3c(-c4cccc(NC(C)=O)c4)ccnc3O2)cc1OC` (stereo not drawn), the AC26 was 2270 nM.
As for `CC1(C(=O)Nc2ccc3c(c2)OCO3)Cc2c(-c3ccc4c(c3)OCO4)ccnc2O1` (stereo not drawn), the AC26 is 7650 nM.
As to `COc1ccc2c(c1)OC[C@H]1[C@H]2N2C(=O)c3cc(Cl)ccc3NC(=O)[C@@]2(C)[C@H]1c1ccccc1`, the AC26 was 1250 nM.
With `Nc1c2ccccc2nc2ccccc12`, the AC26 was 364 nM.
Next, `COc1ccc(C2=NOC(COc3ccc4c(C)cc(=O)oc4c3)C2)c(OC)c1` (stereo not drawn): 1070 nM.
On to `CCN(CCCNC(=O)CCCOc1cc(=O)n(C)c2ccccc12)Cc1ccccc1`, for which the AC26 was 3420 nM.
Take `Cn1c(-c2ccccc2)c(/C=N/NC(=O)c2ccc(O)cc2)c2ccccc21`: the AC26 is 647 nM.
As to `CCCCCCn1c(=O)n2n(c1=O)[C@@H]1CN(S(=O)(=O)c3ccc(C)cc3)C[C@]1(O)[C@@H](OC(=O)NCc1ccccc1)C2`, the AC26 is 763 nM.
With `COc1cccc(-c2nn(C)c3sc(C(=O)NCc4ccco4)cc23)c1` the figure was 3620 nM.
In the case of `O=C(COC(=O)c1cccc(Br)c1)Nc1cccc2c1C(=O)c1ccccc1C2=O`, the AC26 was 4290 nM.
As for `COc1ccc(-c2nc(NCCCN(C)C)c3ccccc3n2)cc1`, the AC26 was 2490 nM.
For the compound `O=C(Nc1ccc(Cc2ccncc2)cc1)c1ccc([N+](=O)[O-])o1`, the AC26 was 1150 nM.
With `COc1ccc(Nc2nc(-c3sc(C)nc3C)cs2)c(OC)c1`, the AC26 is 1240 nM.
On to `O=C(Nc1ncccc1O)c1ccc(C(=O)c2ccccc2)cc1`, for which the AC26 is 5180 nM.
Next, `COc1cc(OC)c2nc(C)c3c(c2c1)N(c1ccc(O)cc1)CC3`: 1190 nM; `CCCNS(=O)(=O)c1cccc(C(=O)OCc2cc(=O)oc3cc(OC)ccc23)c1`: 834 nM.
In the case of `COc1ccc2c(c1)[C@H]1[C@H](CO2)[C@H](c2ccccc2)[C@]2(C)C(=O)Nc3cc(C)ccc3C(=O)N12`, the AC26 is 51.9 nM.
With `COc1ccc(C(=O)NC(=C(Cl)Cl)S(=O)(=O)c2ccc(C)cc2)cc1` the figure was 10200 nM; with `COc1ccccc1N1CCN(S(=O)(=O)CCNC(=O)c2cc(OC)c(OC)c(OC)c2)CC1`, 3850 nM.
Regarding `COc1cccc(C2=CC(c3cccc(OC)c3OC)n3nnnc3N2)c1` (stereo not drawn), the AC26 was 1300 nM.
As to `Cc1cccc([C@@H]2[C@@H]3C(=O)N(Cc4ccccc4)C(=O)[C@@H]3[C@]3(Cc4ccccc4)C(=O)N(c4cccc(F)c4)C(=O)N23)c1`, the AC26 is 11400 nM.
Turning to `c1ccc(-n2nnnc2-c2cccc3ccccc23)cc1`, the AC26 was 2390 nM.
Next, `COc1ccc(/C=C2\SC(=S)N(CCC(=O)NC3CCCC3)C2=O)cc1OC`: 6270 nM; `COc1cc2c(c(OC)c1OC)-c1ccc(OC)c(=O)cc1[C@@H](N(C)CC#CCO)CC2`: 380 nM; `COc1ccccc1NC(=O)Cn1nnc(C(=O)NCc2cccs2)c1N`: 867 nM.
For `Oc1cc(Nc2ccccc2)cc2cccnc12`, the AC26 was 1030 nM.
With `O=C(N/N=C\c1cn(-c2ccccc2)nc1-c1ccccc1)c1ccc(Br)o1`, the AC26 was 9570 nM.
With `Cc1ccc2nc(-c3ccncc3)cc(C(=O)Nc3ccncc3)c2c1`, the AC26 is 3050 nM.
With `C=C(C)Cc1c(C)c(C#N)c2nc3ccccc3n2c1NCCCN(C)C` the figure was 1080 nM.
Consider `CCOC(=O)c1ccccc1Nc1cn(C(C)=O)c2ccccc12`, for which the AC26 is 1790 nM.
On to `Oc1ccc(Nc2nc(NCC3CCCO3)c3ccccc3n2)cc1` (stereo not drawn), for which the AC26 is 1110 nM.
On to `O=C(Nc1cccc(-c2cn3ccccc3n2)c1)c1cccc(Cl)c1`, for which the AC26 was 1750 nM.
For `O=C(CNc1cccc2ccccc12)N/N=C/C(Br)=C/c1ccccc1`, the AC26 is 17100 nM.
Consider `CO/N=C\CC(=O)Nc1ccc(Cl)cc1Cl`, for which the AC26 was 1070 nM.
For `N#Cc1c(N)n(CCc2ccc(F)cc2)c2nc3ccccc3nc12`, the AC26 was 1590 nM.
Take `N#Cc1cc2[nH]c3ccccc3c2[n+](-c2ccc([N+](=O)[O-])cc2)c1N`: the AC26 is 4410 nM.
Turning to `CC(/C=N/NC(=O)c1cc(-c2ccc(C)s2)[nH]n1)=C\c1ccccc1`, the AC26 is 650 nM.
With `COCCNC(=O)c1cc(-c2cccs2)on1`, the AC26 is 4600 nM.
Take `CC(Nc1nc(-c2ccccc2)nc2ccccc12)c1ccccc1` (stereo not drawn): the AC26 was 80.3 nM.
With `COc1cc(NC(=O)c2ccccc2OCc2ccccc2)cc(OC)c1OC` the figure was 1030 nM.
As for `COc1cc(-n2c(N)c(C(=O)NCc3ccco3)c3nc4ccccc4nc32)cc(OC)c1OC`, the AC26 was 2090 nM.
As to `CCOc1ccc(NC(=O)C(=O)NCCN2CCN(S(=O)(=O)c3ccc(C)cc3)CC2)cc1`, the AC26 is 4890 nM.
In the case of `Cc1noc2ncnc(Sc3ccc(Br)cc3)c12`, the AC26 is 4470 nM.
With `COc1ccc(CCn2c(=N)c(S(=O)(=O)c3ccc(C)cc3)cc3c(=O)n4ccccc4nc32)cc1`, the AC26 was 988 nM.
With `Cc1cccc(C)c1OCCNC(=O)C(=O)NCc1ccco1`, the AC26 was 1710 nM.
As to `Cc1ccc(-c2cc(C(=O)Nc3ccncc3)c3ccccc3n2)cc1`, the AC26 is 1910 nM.
In the case of `COc1cc(C(=O)Nc2ccc3c(c2)nc(C)n3C)cc(OC)c1OC`, the AC26 was 2690 nM.
As for `O=c1c2ccccc2sc2c(CO)ccc(NCCN3CCCCC3)c12`, the AC26 is 705 nM.
Turning to `O=C(NCc1ccccc1Br)c1cccc2c1C(=O)c1ccc(-c3ccc(OC(F)(F)F)cc3)cc1S2(=O)=O`, the AC26 is 4060 nM.
As for `Cc1ccc(CSc2ccc3nnc(-c4cccnc4)n3n2)cc1`, the AC26 is 1170 nM.
With `CC1CCC2(CC1)NC(=O)N(CC(=O)Nc1ccc3c(c1)CCC3)C2=O` (stereo not drawn) the figure was 826 nM.
On to `COc1ccc2nc(C)cc(Nc3ccc(N4CCN(C)CC4)cc3)c2c1`, for which the AC26 is 694 nM.
As to `Cc1ccc(CNC(=O)Cc2ccc(Br)cc2)cc1`, the AC26 is 6690 nM.
Next, `COc1ccc2c(c1)OC[C@H]1[C@H]2N2C(=O)c3ccc(F)cc3NC(=O)[C@@]2(C)[C@H]1c1ccccc1`: 1230 nM; `COc1ccc(CCn2c(Br)nc3c2c(=O)[nH]c(=O)n3C)cc1`: 1080 nM; `CN(C)c1ccc(C(C[N+](=O)[O-])c2c(N)n(C)c(=O)n(C)c2=O)c(F)c1C#N` (stereo not drawn): 3300 nM.
On to `COc1cccc(/C=C2\SC(=S)N(CCC(=O)N3CCCCC3)C2=O)c1`, for which the AC26 is 5770 nM.
Consider `COc1ccc(C2=Nn3c(nnc3-c3ccccc3F)SC2)cc1OC1CCOC1` (stereo not drawn), for which the AC26 was 4730 nM.
Take `COC(=O)c1c(NC(=O)c2cccnc2Cl)sc(C(=O)N(C)C)c1C`: the AC26 is 2090 nM.
For the compound `COc1ccc(C(=O)Nc2sc(C)c(C)c2CN2CC(C)OC(C)C2)cc1` (stereo not drawn), the AC26 is 659 nM.
`COc1ccc(C2C3=C(COC3=O)Oc3cc4c(cc32)OCO4)cc1OC` (stereo not drawn): the AC26 is 1780 nM.

For the origin of these results see PubChem BioAssay AID624491 (Broad Institute, 2012).
